# Laboratory results taken from PubChem BioAssay (NCI).
# Where “and” joins values, the source holds several entries; their conditions need not be identical. Equal entries are not always repeated.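 A five-concentration, 48-hour dose response in 96-well plates underlies each endpoint, interpolated linearly between surrounding concentrations. Here, GI50 denotes the concentration required for 50% inhibition of growth. At the TGI there is no net growth.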
# Columns and labels:
# Assay in all cases: NCI-60 cell line screen, 48 h
# [1] = tested on: PC-3 prostate
# [2] = tested on: HL-60(TB) leukemia
# [3] = tested on: SK-MEL-28 melanoma
# [4] = tested on: SK-MEL-2 melanoma
# [5] = tested on: NCI-H522 lung
# [6] = tested on: HCT-116 colon
# [7] = tested on: COLO 205 colon
# [8] = tested on: UACC-62 melanoma
# [9] = tested on: MDA-MB-435
# [10] = tested on: OVCAR-3 ovarian
Compound,GI50 [1] [µM],TGI [1],GI50 [2] [µM],TGI [2],GI50 [3] [µM],TGI [3],GI50 [4] [µM],TGI [4],GI50 [5] [µM],TGI [5],GI50 [6] [µM],TGI [6],GI50 [7] [µM],TGI [7],GI50 [8] [µM],TGI [8],GI50 [9] [µM],TGI [9],GI50 [10] [µM],TGI [10]
CCCCCCn1c2c(c3c(O)cccc31)C(=O)c1ccccc1-2,19.6,36.6 µM,18.7,63.6 µM,35.9,> 100 µM,18.9,37.9 µM,17.2,35.9 µM,17.2,30.9 µM,38.8,> 100 µM,17.5,31.7 µM,20.3,44.9 µM,20.6,43 µM
CSc1nc(SC)c2c(C)cn(C3OC(C)C(O)C(O)C3O)c2n1 (stereo unspecified),,> 100 µM,,> 100 µM,,> 100 µM,,> 100 µM,,> 100 µM,,> 100 µM,,> 100 µM,,> 100 µM,,> 100 µM,,> 100 µM
O=C(O)c1c[nH]c2c(ccc3[nH]cc(C(=O)O)c(=O)c32)c1=O,,> 100 µM,,> 100 µM,,> 100 µM,,> 100 µM,,> 100 µM,,> 100 µM,,> 100 µM,,> 100 µM,,> 100 µM,,> 100 µM
O=C(NC(Cc1ccccc1)C(=O)CCl)OCc1ccccc1 (stereo unspecified),6.13,20.3 µM,14.3,43.1 µM and 13.4 µM,5.55,19.3 µM and 25.3 µM,1.96,4.89 µM and 22 µM,1.36,3.43 µM and 4.31 µM,1.65,3.32 µM and 26.5 µM,10,24.1 µM and 24 µM,4.52,17.7 µM and 21.2 µM,3.59,14.3 µM,3.65,11.8 µM and 18.7 µM
COC1/C=C/OC2(C)Oc3c(C)c(O)c4c(O)c(c(C=NOC(c5ccccc5)c5ccccc5)c(O)c4c3C2=O)NC(=O)/C(C)=C/C=C/C(C)C(O)C(C)C(O)C(C)C(OC(C)=O)C1C (stereo unspecified),1.34,4.15 µM,1.84,3.83 µM,0.959,2.08 µM,1.05,2.54 µM,1.18,3.97 µM,0.97,1.86 µM,1.01,2.06 µM,0.935,1.97 µM,1.18,3.01 µM,1,2.01 µM
CS(=O)(=O)c1ccc(-c2cnc(NCc3ccco3)n3cnnc23)cc1,57.8,> 100 µM,39.7,> 100 µM,25.3,> 100 µM,66.6,> 100 µM,> 100,> 100 µM,> 100,> 100 µM,28.7,> 100 µM,,,54.5,> 100 µM,> 100,> 100 µM
COc1ccc(/C=C/C(=O)c2ccccc2)cc1OC,23.2,25.1 µM and 82 µM,14.6,61.2 µM and > 100 µM,17.6,38.1 µM and 32 µM,,32.2 µM and 35.3 µM,4.18,31.5 µM and 19.6 µM,3.51,20.2 µM and 14.2 µM,,31.6 µM and 34.8 µM,11.7,27.1 µM and 27.3 µM,6.89,14.6 µM and 25.2 µM,7.38,25.3 µM and 26.8 µM
Cc1nc2cc(Nc3nc(Nc4ccc(F)cc4)nc(N4CCCC4)n3)ccc2n1Cc1ccccc1,1.77,4.29 µM,2.58,5.3 µM,1.88,3.92 µM,1.69,3.33 µM,1.69,4.07 µM,1.66,3.09 µM,1.79,3.48 µM,1.62,2.99 µM,1.62,3.09 µM,1.77,3.28 µM
COc1cccc(/C=C2\CCc3ccccc3C2=O)c1,16.3,65.1 µM,21.9,67.4 µM,15.5,31 µM,12.9,28.2 µM,4.09,22.3 µM,9.26,25.3 µM,19.9,34.1 µM,10.8,25.7 µM,4.15,20.1 µM,12.9,26.2 µM
NC(CSC1(c2ccc(Cl)cc2)c2ccccc2-c2ccccc21)C(=O)O (stereo unspecified),,43.5 µM,,> 100 µM,,> 100 µM,,41.8 µM,,30.4 µM,,34.6 µM,,28.9 µM,,34.4 µM,,35.3 µM,,> 100 µM
COc1cc(-c2ccc(=O)oc2C#Cc2ccccc2)cc(OC)c1OC,> 100,> 100 µM,8.56,> 100 µM,26.7,> 100 µM,23.2,> 100 µM,44.5,> 100 µM,1.66,> 100 µM,34.1,> 100 µM,11.6,> 100 µM,14.6,> 100 µM,36.4,> 100 µM
COc1ccc2c(c1)CC1N(C)CCC13CCCCC23 (stereo unspecified),,> 100 µM,,> 100 µM,,> 100 µM,,> 100 µM,,> 100 µM,,> 100 µM,,> 100 µM,,> 100 µM,,> 100 µM,,> 100 µM
CCN(CC)CCNC(=O)C(Cl)=C1C(Cl)=C(Cl)C(Cl)=C1Cl,4.23,41.3 µM,3.35,7.06 µM,2.45,7.11 µM,3,11.6 µM,1.47,3.21 µM,1.78,4.4 µM,4.21,13.4 µM,2.18,12.4 µM,2.24,6.54 µM,2.45,7.45 µM
N/C(=N\C(N)=N\c1nc2ccccc2s1)c1ccnc(Br)c1,4.61,> 100 µM,3.02,> 100 µM,8.7,> 100 µM,3.81,> 100 µM,3.22,> 100 µM,3.28,> 100 µM,11,> 100 µM,4.47,> 100 µM,2.1,7.32 µM,3.46,18.9 µM
